IC50 data for 14 compounds are collected here from patent US9206161B2, “Bridged bicyclic heteroaryl substituted triazoles useful as Axl inhibitors” (Rigel Pharmaceuticals, Inc., priority 2008, dated 2015).

The experiment addresses T1, Axl (Homo sapiens, UniProt P30530).
T1 construct: endogenous in cells; host or cells: HeLa cells
T1 sequence (P30530 26-894): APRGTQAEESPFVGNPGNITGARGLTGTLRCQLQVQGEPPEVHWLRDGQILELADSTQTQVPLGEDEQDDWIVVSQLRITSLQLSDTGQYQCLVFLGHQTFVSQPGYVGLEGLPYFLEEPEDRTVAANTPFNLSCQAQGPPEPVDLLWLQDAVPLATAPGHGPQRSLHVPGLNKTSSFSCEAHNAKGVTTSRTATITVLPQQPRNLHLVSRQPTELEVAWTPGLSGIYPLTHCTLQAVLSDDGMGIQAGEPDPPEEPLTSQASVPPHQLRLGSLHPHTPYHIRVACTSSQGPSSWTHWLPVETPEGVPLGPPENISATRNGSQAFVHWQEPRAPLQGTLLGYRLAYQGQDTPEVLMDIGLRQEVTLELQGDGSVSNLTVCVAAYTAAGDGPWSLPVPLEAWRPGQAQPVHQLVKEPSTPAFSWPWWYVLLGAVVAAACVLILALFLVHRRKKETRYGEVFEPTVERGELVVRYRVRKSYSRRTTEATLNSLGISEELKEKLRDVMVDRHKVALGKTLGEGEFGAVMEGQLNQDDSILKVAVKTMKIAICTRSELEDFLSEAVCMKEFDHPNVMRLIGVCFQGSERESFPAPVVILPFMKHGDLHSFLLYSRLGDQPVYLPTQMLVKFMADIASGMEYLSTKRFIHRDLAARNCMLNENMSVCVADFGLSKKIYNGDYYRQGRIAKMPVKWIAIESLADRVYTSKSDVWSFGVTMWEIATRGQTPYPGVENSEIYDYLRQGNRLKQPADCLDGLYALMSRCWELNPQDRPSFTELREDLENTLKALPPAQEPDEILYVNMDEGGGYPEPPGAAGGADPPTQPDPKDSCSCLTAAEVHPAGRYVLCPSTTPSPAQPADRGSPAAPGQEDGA
Description: Phospho-Akt in-cell Western assay. Format: cell-based. The note with it: Hela cells, Axl antibody cross-linking stimulation, phospho-Akt readout. As to the method: Phospho-Akt in-Cell Western Assay
The compounds of the invention were tested in the following assay for their ability to inhibit Axl activity.
• Cell culture plate: 96 well assay plate (Corning 3610), white, clear bottom, tissue-culture treated. • Cells: Hela cells. • Starvation medium: For Axl stimulation: 0.5% FCS (fetal calf serum) in DMEM, plus Axl/Fc (extracellular domain of AXL fused to immunoglobulin Fc region) (R&D, 154-AL) 500 ng/mL. • For EGF (epidermal growth factor) stimulation: 0.5% FCS in DMEM (Dulbecco's modified Eagles medium). • Poly-L-Lysine 0.01% solution (the working solution): 10 μg/ml, dilute In PBS (phosphate buffered saline). • Axl antibody cross-linking: • 1st: Mouse anti-Axl (R&D, MAB154). • 2nd: Biotin-SP-conjugated AffiniPure goat anti-mouse IgG (H+L) (Jackson ImmunoResearch #115-065-003). • Fixing buffer: 4% formaldehyde in PBS. • Wash buffer: 0.1% TritonX-100 in PBS. • Quenching buffer: 3% H2O2, 0.1% Azide in wash buffer, Azide and hydrogen peroxide (H2O2) are added fresh. • Blocking buffer: 5% BSA in TBST (tris buffered saline plus 0.1% Tween 20). • Primary antibody: Rabbit anti-human Phospho-Akt antibody (Cell Signaling 9271): 1×250 diluted in blocking buffer. • Secondary antibody: HRP (horse radish peroxidase)-conjugated Goat anti-Rabbit secondary, stock solution: Jackson ImmunoResearch (Goat anti-Rabbit HRP, #111-035-144) 1:1 diluted in glycerol, store at −20° C. The working solution: 1×2000 dilution of stock in blocking buffer. • Chemiluminescent working solution (Pierce, 37030): SuperSignal ELISA (enzyme linked immunosorbant assay) Pico Chemiluminescent substrate. • Crystal Violet solution: Stock: 2.5% Crystal violet in methanol, filtered and kept at ambient temperature. The working solution: dilute the stock 1:20 with PBS immediately before use. • 10% SDS: working solution: 5% SDS (sodium dodecylsulfate), diluted in PBS Methods: Day 1:
A 96 well TC (tissue culture treated) plate was coated with 10 μg/mL poly-L-Lysine at 37° C. for 30 min, washed twice with PBS, and air-dried for 5 minutes before cells were added. Hela cells were seeded at 10,000 cells/well and the cells were starved in 100 μL starvation medium containing Axl/Fc for 24 hrs.
The cells were pre-treated with test compounds by adding 100 μL of 2× test compound to the starvation medium on the cells. The cells were incubated at 37° C. for 1 hr before stimulation.
The cells were stimulated by Axl-antibody cross-linking as follows: A 5×1st/2nd Axl antibody mixture was made (37.5 μg/mL 1st/100 μg/mL 2nd) in starvation medium and nutated at 4° C. with thorough mixing for 1-2 hours for clustering. The resulting mix was warmed to 37° C. 50 μL of 5× Axl 1st/2nd of antibody cluster was added to the cells and the cells were incubated at 37° C. for 5 min.
After 5 minutes stimulation, the plate was flicked to remove medium and the plate was tapped onto paper towels. Formaldehyde (4.0% in PBS, 100 μL) was added to fix the cells and the cells were incubated at ambient temperature for 20 min without shaking.
The cells were washed with a plate washer buffer to remove the formaldehyde solution. The plate was flicked to removed excess wash buffer and tapped onto paper towels. Quenching buffer (100 μL) was added to each well and the cells were incubated at ambient temperature for 20 minutes without shaking.
The cells were washed with a plate washer buffer to remove the quenching buffer. Blocking buffer (100 μL) was added and the cells were incubated at ambient temperature for at least an hour with gentle shaking.
The cells were washed with a plate washer buffer and diluted primary antibody (50 μL) was added to each well (blocking buffer was added to the negative control wells instead). The plates were incubated overnight at 4° C. with gentle shaking.
The wash buffer was removed, diluted secondary antibody (100 μL) was added, and the cells were incubated at ambient temperature for 1 hour with gentle shaking. […]

One may read the IC50 as the point on the concentration scale where inhibition reaches its midpoint. Higher therefore signals a need for much substance. Compound `CCN(CC)[C@H]1CCc2ccc(Nc3nc(N)n(-c4cc(-c5ccccc5)c5c(n4)C4CCN5CC4)n3)cc2CC1` [Compound 35, (7S)-1-(1,4-ethano-8-phenyl-1,2,3,4-tetrahydro-1,5-naphthyridin-6-yl)-N^3-(7-(diethylamino)-6,7,8,9-tetrahydro-5H-benzo[7]annulene-2-yl)-1H-1,2,4-triazole-3,5-diamine] gave an IC50 (Table 4, formula (III)) below 1000 nM.

The compound `CCCN(CCC)[C@H]1CCc2ccc(Nc3nc(N)n(-c4cc(-c5ccccc5)c5c(n4)C4CCN5CC4)n3)cc2CC1` [Compound 39, (7S)-1-(1,4-ethano-8-phenyl-1,2,3,4-tetrahydro-1,5-naphthyridin-6-yl)-N^3-(7-(dipropylamino)-6,7,8,9-tetrahydro-5H-benzo[7]annulene-2-yl)-1H-1,2,4-triazole-3,5-diamine] showed a half-maximal inhibitory concentration (IC50) (Table 4, formula (III)) below 1000 nM. `Nc1nc(Nc2ccc3c(c2)CCC(N2CCCC2)CC3)nn1-c1nnc(-c2ccccc2)c2c1C1CCC2CC1` (centres unmarked) [Compound 28, 1-(4-phenyl-5,8-ethano-5,6,7,8-tetrahydrophthalazine-1-yl)-N^3-(7-(pyrrolidin-1-yl)-6,7,8,9-tetrahydro-5H-benzo[7]annulene-2-yl)-1H-1,2,4-triazole-3,5-diamine] registered an IC50 (Table 8, formula (VI)) below 1000 nM. `Cc1cccc(-c2nnc(-n3nc(Nc4ccc(N5CCN(CC6CC6)[C@@H](C)C5)nc4)nc3N)c3c2C2CCC3CC2)c1` [Compound 23, (3S)-1-(4-(3-methylphenyl)-5,8-ethano-5,6,7,8-tetrahydrophthalazine-1-yl)-N^3-(6-(4-(cyclopropylmethyl)-3-methylpiperazin-1-yl)pyridin-3-yl)-1H-1,2,4-triazole-3,5-diamine] yielded a half-maximal inhibitory concentration (IC50) (Table 7, formula (V)) of 1000 to 10000 nM. The compound `Nc1nc(Nc2ccc(N3CCC(N4CCCC4)CC3)c(F)c2)nn1-c1cc(-c2ccc(F)cc2)c2c(n1)C1CCN2CC1` [Compound 8, 1-(1,4-ethano-8-(4-fluorophenyl)-1,2,3,4-tetrahydro-1,5-naphthyridin-6-yl)-N^3-(4-(4-(pyrrolidin-1-yl)piperidinyl)-3-fluorophenyl)-1H-1,2,4-triazole-3,5-diamine] gave an IC50 (Table 3, formula (II)) below 1000 nM. Consider `CC(C)CN(CC(C)C)[C@H]1CCc2ccc(Nc3nc(N)n(-c4cc(-c5ccccc5)c5c(n4)C4CCN5CC4)n3)cc2CC1` [Compound 41, (7S)-1-(1,4-ethano-8-phenyl-1,2,3,4-tetrahydro-1,5-naphthyridin-6-yl)-N^3-(7-(diisobutylamino)-6,7,8,9-tetrahydro-5H-benzo[7]annulene-2-yl)-1H-1,2,4-triazole-3,5-diamine], for which, for the setting “Table 4, formula (III)”, the IC50 is below 1000 nM. Regarding `Nc1nc(Nc2ccc(N3CCC(N4CCCC4)CC3)c(F)c2)nn1-c1nc(-c2ccccc2)c2c(n1)C1CCN2CC1` [Compound 43, 1-(5,8-ethano-4-phenyl-5,6,7,8-tetrahydropyrido[3,2-d]pyrimidin-2-yl)-N^3-(4-(4-(pyrrolidin-1-yl)piperidinyl)-3-fluorophenyl)-1H-1,2,4-triazole-3,5-diamine], for the setting “Table 9, formula (VII)”, the IC50 was below 1000 nM. On to `CCOc1ccc(C)cc1-c1nnc(-n2nc(Nc3ccc4c(c3)CCC(N3CCCC3)CC4)nc2N)c2c1C1CCC2CC1` (centres unmarked) [Compound 32, 1-(4-(2-ethoxy-5-methylphenyl)-5,8-ethano-5,6,7,8-tetrahydrophthalazine-1-yl)-N^3-(7-(pyrrolidin-1-yl)-6,7,8,9-tetrahydro-5H-benzo[7]annulene-2-yl)-1H-1,2,4-triazole-3,5-diamine], for which, under “Table 8, formula (VI)”, the half-inhibitory concentration (IC50) was in the range of 1000 to 10000 nM. In turn, `C[C@H]1CN(c2ccc(Nc3nc(N)n(-c4nnc(-c5ccccc5Cl)c5c4C4CCC5CC4)n3)cn2)CCN1CC1CC1` [Compound 22, (3S)-1-(4-(2-chlorophenyl)-5,8-ethano-5,6,7,8-tetrahydrophthalazine-1-yl)-N^3-(6-(4-(cyclopropylmethyl)-3-methylpiperazin-1-yl)pyridin-3-yl)-1H-1,2,4-triazole-3,5-diamine] showed a 50% inhibitory concentration (IC50) (Table 7, formula (V)) below 1000 nM. `Nc1nc(Nc2ccc(N3CCC(N4CCCC4)CC3)c(F)c2)nn1-c1nc2c(c(-c3ccccc3)n1)CCCC2` [Compound 42, 1-(4-phenyl-5,6,7,8-tetrahydroquinazoline-2-yl)-N^3-(4-(4-(pyrrolidin-1-yl)piperidinyl)-3-fluorophenyl)-1H-1,2,4-triazole-3,5-diamine] displayed an IC50 (Table 9, formula (VII)) below 1000 nM.

Compound `Nc1nc(Nc2ccc3c(c2)CC[C@@H](N)CC3)nn1-c1cc(-c2ccccc2)c2c(n1)C1CCN2CC1` [Compound 26, (7S)-1-(1,4-ethano-8-phenyl-1,2,3,4-tetrahydro-1,5-naphthyridin-6-yl)-N^3-(7-amino-6,7,8,9-tetrahydro-5H-benzo[7]annulene-2-yl)-1H-1,2,4-triazole-3,5-diamine] yielded an IC50 (Table 4, formula (III)) below 1000 nM. Compound `Nc1nc(Nc2ccc3c(c2)CCC(N2CCCC2)CC3)nn1-c1nnc(Cl)c2c1C1CCC2CC1` (centres unmarked) [Compound 27, 1-(4-chloro-5,8-ethano-5,6,7,8-tetrahydrophthalazine-1-yl)-N^3-(7-(pyrrolidin-1-yl)-6,7,8,9-tetrahydro-5H-benzo[7]annulene-2-yl)-1H-1,2,4-triazole-3,5-diamine] registered an IC50 (Table 8, formula (VI)) below 1000 nM.

`Cc1cccc(-c2nnc(-n3nc(Nc4ccc5c(c4)CCC(N4CCCC4)CC5)nc3N)c3c2C2CCC3CC2)c1` (centres unmarked) [Compound 30, 1-(4-(3-methylphenyl)-5,8-ethano-5,6,7,8-tetrahydrophthalazine-1-yl)-N^3-(7-(pyrrolidin-1-yl)-6,7,8,9-tetrahydro-5H-benzo[7]annulene-2-yl)-1H-1,2,4-triazole-3,5-diamine] registered a concentration for half-maximal inhibition (IC50) (Table 8, formula (VI)) below 1000 nM. `Nc1nc(Nc2ccc3c(c2)CCC(N2CCCC2)CC3)nn1-c1nnc(-c2ccncc2)c2c1C1CCC2CC1` (centres unmarked) [Compound 34, 1-(4-(pyridin-4-yl)-5,8-ethano-5,6,7,8-tetrahydrophthalazine-1-yl)-N^3-(7-(pyrrolidin-1-yl)-6,7,8,9-tetrahydro-5H-benzo[7]annulene-2-yl)-1H-1,2,4-triazole-3,5-diamine] showed a half-maximal inhibitory concentration (IC50) (Table 8, formula (VI)) below 1000 nM.
